Reference: paper PMC3332081, “Cysteamine Suppresses Invasion, Metastasis and Prolongs Survival by Inhibiting Matrix Metalloproteinases in a Mouse Model of Human Pancreatic Cancer” (PLoS ONE, 2012)

Tests used:
[1] = tested on: MMPs; experiment: fluorimetric MMP inhibitor profiling, span over all MMPs; type: biochemical; conditions: MMP-1, -2, -3, -7, -8, -9, -10, -12, -13, -14; read-out: IC50 against each MMP enzymatic activity (span over the MMPs)
Protocol: (§1) After administration of fluorogenic substrate, a velocity of fluorescent increase was measured using excitation/emission = 320/405 nm.

[2] = tested on: pancreatic cancer cell lines; experiment: matrigel invasion assay; type: cell-based, human
Protocol: Cell invasion was assayed in BD BioCoat Matrigel invasion chambers (BD Biosciences; 24 wells, 8 µm pore size) as described previously. Briefly, cells were incubated with different concentrations of cysteamine (0–5 mM) for 24 hours. Non-invaded cells were removed from the upper surface of the membrane with a cotton swab, and cells on the lower surface of the membrane were fixed and stained with H&E. Three random fields per chamber were counted. Data were shown as mean ± S.D. of triplicate determinations.

[3] = tested on: pancreatic cancer cell lines; experiment: cell migration (wound healing) assay; type: cell-based, human
Protocol: Cell migration assay is a classical wound healing assay. For this assay, cells were cultured in 10 cm petri dishes until they were completely confluent. Cell monolayers were scraped with a sterile yellow micropipette tip and washed with PBS three times; the cells were then cultured in medium containing 0–5 mM of cysteamine for 24 hours. Five random fields were selected and pictures were taken using an inverted microscope. The average area (mm^2) of the gap between the cell layers was calculated using IPLab imaging software (BD Biosciences-Bioimaging, Rockville, MD).

[4] = tested on: HS766T; experiment: cell viability assay (trypan blue count), HS766T; type: cell-based, human; conditions: 24 and 48 hour treatment, viable cell count
Protocol: (§2) Cell viability of pancreatic cancer cell lines was measured by counting viable cell numbers. Briefly, 3×10^5 cells were seeded per well in a 6-well plate with 2.0 milliliter complete medium and incubated overnight for plating. The cells were treated with different concentrations of cysteamine for 24–48 hours. After incubation, cells were detached with trypsin, washed and stained with 0.4% trypan blue. Cell number was manually counted using a hemocytometer and presented as number of viable cells per milliliter.

[5] = tested on: MIA-PaCa2; experiment: cell viability assay (trypan blue count), MIA-PaCa2; type: cell-based, human
Protocol: as §2

[6] = tested on: total MMPs activity in pancreatic cancer cell lines; experiment: total MMPs activity in lysates of treated cells (fluorogenic substrate); type: cell-based, human; conditions: two representative pancreatic cancer cell lines, 0–5 mM, 24 hours
Protocol: (§3) MMPs activity was measured by Mca-KPLGL-Dpa-AR-NH2 Fluorogenic Peptide Substrate (R&D systems, Emeryville, CA). Total cell protein from each pancreatic cancer cell line was collected using lysis buffer (containing 50 mM Tris-HCl, 10 mM CaCl2, 0.05% Brij35 and 0.25% Triton-X) without an MMP inhibitor. Substrate and 10 µg of total cell protein in the buffer were mixed in a black-wall 96-well plate. After 1 hour incubation, fluorescence units were determined using excitation/emission = 320/405 nm.

[7] = tested on: MMP-9; experiment: MMP-9 protein level in treated cells (ELISA); type: cell-based, human; conditions: 5 mM (highest concentration), 24 hours, both cell lines
Protocol: (§4) The MMP-9 protein level was determined using Human total MMP-9 DuoSet kit (R&D systems, Emeryville, CA) following the manufacturer's instruction. Ten microgram of total protein was aliquoted in each well and the MMP-9 concentration was determined by the colorimetric method.

[8] = tested on: MMP-9; experiment: MMP-9 mRNA in treated cells (qRT-PCR); type: cell-based, human; conditions: 5 mM (highest concentration), 24 hours, both cell lines
Protocol: (§5) Quantitative reverse transcription-PCR (qRT-PCR) was performed as described previously using QuantiTect SYBR Green PCR Kits (QIAGEN, Valencia, CA). Gene specific primers for human MMP-9, MMP-12, MMP-14 and β-actin were either purchased from QIAGEN or synthesized at the CBER core facility. Gene expression was normalized to β-actin before the fold change in gene expression was determined.

[9] = tested on: MMP-12; experiment: MMP-12 mRNA in treated cells (qRT-PCR); type: cell-based, human; conditions: 24 hours, highest concentration
Protocol: as §5

[10] = tested on: MMP-14; experiment: MMP-14 mRNA in treated cells (qRT-PCR); type: cell-based, human; conditions: 24 hours, highest concentration
Protocol: as §5

[11] = tested on: MMP-9; experiment: gelatin gel zymography of treated cells; type: cell-based, human; conditions: cell lysates after 24 hours
Protocol: (§6) Gelatin gel zymography was performed on cell lysates from HS7666 and MIA-PaCa2 pancreatic cancer cell line with or without culture with different concentration of cysteamine essentially as described by D'Angelo et al. Briefly, 50 µg of total protein was electrophoresed on 10% SDS-PAGE containing 0.1% gelatin as substrate. After washing with 1% Triton X-100 in 50 mM Tris/HCl, pH 7.5 for 1 hr to remove SDS, the gels were incubated overnight at 37 °C in 50 mM Tris/HCl, pH 7.5, containing 150 mM NaCl, 10 mM CaCl2 and 0.1% Triton X-100, prior to staining with simply blue safe stain. The gels were washed with deionized water at room temperature. […] Relevant band intensities were quantified by scanning densitometric analysis and normalized to cell number.

[12] = tested on: HS766T; experiment: orthotopic pancreatic cancer model, HS766T; type: in vivo, nude nu/nu mice
Protocol: (§7) Female nude nu/nu mice between ages 5 and 6 weeks were maintained in a barrier facility in HEPA-filtered rack. All animal studies were conducted under approved protocol #2000–06 by the CBER Institutional Animal Care and Use Committee in accordance with the principles and procedures outlined in the NIH Guideline for the Care and Use of Laboratory Animals. For orthotopic tumor cell injection, the pancreas was carefully exposed, and 2.0×10^6 of MIA-PaCa2 and HS766T cells were injected into the organ. The pancreas was then returned to the peritoneal cavity, and the abdominal wall and skin were closed with skin clips,[30]. From day 4 after tumor implantation, increasing doses of cysteamine (0, 25, 100, or 250 mg/kg/day) were subcutaneously injected twice a day until the end of the experiment. At day 30, mice were sacrificed and the number of metastatic nodules visible by naked eye and whose sizes were >5 mm in diameter counted. The total weight of primary tumor and metastatic nodules were also measured. Pictures were taken immediately after sacrificing the animals. Additionally, mouse survival time was monitored in an independent experiment. Mice were sacrificed when they had severe ascites or cachexia. Mice in both tumor models were weighed at day 10 and day 25 after Cysteamine treatment.

[13] = tested on: MIA-PaCa2; experiment: orthotopic pancreatic cancer model, MIA-PaCa2; type: in vivo, nude nu/nu mice
Protocol: as §7

[14] = safety in tumor-bearing mice (body weight, serum enzymes, histology); type: in vivo, nude nu/nu mice
Protocol: as §7
Mouse blood was collected from the tail vein. Serum levels of alanine aminotransferase (ALT), creatine kinase (CK), aldolase and creatinine (Cr) were measured using different kits obtained from Pointe Scientific, Inc. (Canton, MI) and Caldon Biotech, Inc. (Vista, Ca), following the manufacturer's instruction.

[15] = tested on: MMPs activity in primary orthotopic tumors (HS766T and MIA-PaCa2); experiment: MMP activity in primary orthotopic tumors (fluorogenic substrate); type: in vivo, nude nu/nu mice; conditions: 100 and 250 mg/Kg, day 30
Protocol: as §3
(§8) When mice were sacrificed at day 30, primary tumors were collected. For extraction of total protein, the tumor was soaked with lysis buffer and homogenized using TissueRuptor (QIAGEN); the supernatant was collected. Total RNA was extracted using FastRNA pro green kit (MP Biomedicals, Solon, OH) following the manufacturer's instructions. MMP activity, gelatin hydrolyzing MMP activity and the mRNA and protein levels of MMP-9 were determined as mentioned above.

[16] = tested on: MMP-9; experiment: MMP-9 mRNA in primary tumors (qRT-PCR); type: in vivo, nude nu/nu mice; conditions: tumors harvested at day 30
Protocol: as §5, §8

[17] = tested on: MMP-9; experiment: MMP-9 protein in primary tumors (ELISA); type: in vivo, nude nu/nu mice; conditions: tumors harvested at day 30
Protocol: as §4, §8

[18] = tested on: MMP-9; experiment: zymography of primary tumors; type: in vivo, nude nu/nu mice; conditions: tumors harvested at day 30
Protocol: as §6, §8

[19] = oral, every 6 hours at 60 to 90 mg/kg of body weight per day; cited from earlier work
[20] = cited from earlier work
[21] = biological target: T1, MMP-12 (Homo sapiens, UniProt P39900); experiment: fluorimetric MMP inhibitor profiling, MMP-12; type: biochemical; conditions: 30 minutes preincubation, fluorogenic substrate
T1 construct: purchased Enzo Life Science, Farmingdale, NY
Protocol: as §1

[22] = parameters: method as in PMID 11060801; conditions: cited from earlier work

T1 sequence (P39900 106-470): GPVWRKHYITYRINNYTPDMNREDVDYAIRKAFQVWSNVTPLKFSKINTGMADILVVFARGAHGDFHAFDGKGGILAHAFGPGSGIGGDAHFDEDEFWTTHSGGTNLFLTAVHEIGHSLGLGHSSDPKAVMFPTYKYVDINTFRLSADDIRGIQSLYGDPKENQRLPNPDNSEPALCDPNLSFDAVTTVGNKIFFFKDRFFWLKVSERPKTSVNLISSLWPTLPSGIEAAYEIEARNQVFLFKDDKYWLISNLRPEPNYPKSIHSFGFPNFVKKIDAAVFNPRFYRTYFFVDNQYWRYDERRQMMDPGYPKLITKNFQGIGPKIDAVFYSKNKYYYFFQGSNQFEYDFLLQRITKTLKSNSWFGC

Structure (SMILES): NCCS [Cysteamine]
- IC50 [1]: 38 to 460 µM
- lowest concentration that significantly inhibited cell invasion ([2]; all 10 pancreatic cancer cell lines, 24 hours): 0.05 mM
- concentration that sufficiently inhibited cancer cell invasion in vitro ([2]; in vitro): 50 µM
- concentration at which cell migration was significantly inhibited ([3]; all 10 cell lines, 24 hours): ≥ 0.05 mM
- concentration that sufficiently inhibited cancer cell migration in vitro ([3]; in vitro): 50 µM
- concentration showing cell toxicity [4]: > 12.5 mM
- concentration showing cell toxicity ([5]; MIA-PaCa2, 24 and 48 hour treatment, viable cell count): > 12.5 mM
- concentrations that caused no toxicity to cells (abstract) ([5]; cells not named in the abstract, viability tested in MIA-PaCa2): < 25 mM
- total MMP activity in treated cells [6]: inhibited MMP activity
- MMP-9 protein level [7]: modestly increased
- MMP-9 mRNA level [8]: modestly increased
- MMP-12 mRNA [9]: modest increase
- MMP-14 mRNA [10]: modest increase
- zymographic gelatin hydrolyzing activity, pro and active MMP-9 [11]: decreased significantly in a dose dependent manner
- HS766T metastasis number, average ([12]; 250mg/kg s.c., day 30, lesions ≥ 5 mm, average of 5 mice): 3.6
- decrease of the number of metastases of HS766T tumor ([12]; 250 mg/kg/day s.c., day 30, versus control): ~90%
- development of ascites ([12]; HS766T model, 100 and 250 mg/kg/day): no mice developed ascites
- dose at which mouse survival time was significantly prolonged ([12]; HS766T model, Kaplan-Meier, s.c. twice a day from day 4): ≥ 100 mg/kg/day
- size and weight of the primary tumors, control versus treated groups ([12]; HS766T model, day 30): did not show any difference
- development of ascites ([13]; MIA-PaCa2 model, 100 and 250 mg/kg/day): no mice developed ascites
- dose at which mouse survival time was significantly prolonged ([13]; MIA-PaCa2 model, Kaplan-Meier, s.c. twice a day from day 4): ≥ 100 mg/kg/day
- size and weight of the primary tumors, control versus treated groups ([13]; MIA-PaCa2 model, day 30): did not show any difference
- decrease of the total weight of metastatic nodules of MIA-PaCa2 tumor ([13]; highest dose (250 mg/kg/day) s.c., day 30, versus control): ~90%
- organ toxicity by histological examination ([14]; liver, kidney, brain, heart, lung, day 30): no organ toxicity was detected
- dose tolerated without visible, biochemical or histological evidence of toxicity ([14]; mice, s.c.): up to 250 mg/kg/day
- serum alanine aminotransferase (ALT) ([14]; mouse, in vivo): no significant differences
- serum aldolase ([14]; mouse, in vivo): no significant differences
- serum creatine kinase (CK) ([14]; mouse, in vivo): no significant differences
- serum creatinine (Cr) ([14]; mouse, in vivo): no significant differences
- MMPs activity in primary orthotopic tumors [15]: decreased MMPs activity
- MMP-9 mRNA level in primary tumors [16]: did not affect
- MMP-9 protein level in primary tumors [17]: did not affect
- zymography for MMP-9, gelatinase activity in tumors [18]: dose dependent decrease in gelatinase activity
- cysteamine plasma level [19]: ~50 µM
- adverse effects in subjects [20]: only gastrointestinal symptoms

Structure (SMILES): CNC(=O)[C@@H](NC(=O)[C@H](CC(C)C)[C@H](O)C(=O)NO)C(C)(C)C [marimastat]
- clinical toxicity ([20]; higher dosage, patients with breast cancer metastasis): high musculoskeletal toxicities

Structure (SMILES): CNC(=O)[C@H](Cc1ccccc1)NC(=O)[C@H](CC(C)C)[C@H](CSc1cccs1)C(=O)NO [Batimastat]
- IC50 [21]: 12 nM
- oral bioavailability [22]: poor oral bioavailability
